# Key:
# [1] = tested on: human GluR3A receptor; assay: AMPA-binding assay, membranes of transfected COS-1 cells
# Description: (§1) Transfected cells in the frozen state were resuspended in ice-cold distilled water using a hand homogenizer, sonicated for 5 seconds, and then centrifuged for 20 minutes at 50,000 g. The supernatant was discarded and the membrane pellet stored frozen at −70 C.
# (§2) COS cell membrane pellets were suspended in ice cold 50 mM Tris-HCl (pH 7.55, 5 C) and centrifuged again at 50,000 g for 10 minutes in order to remove endogenous glutamate that would compete for binding. Pellets were resuspended in ice cold 50 mM Tris-HCl (pH 7.55) buffer and the resultant membrane preparation was used as tissue source for binding experiments described below. Proteins were determined using the Pierce Reagent with BSA as standard.
# Binding assays were then performed, using an amount of COS-derived membrane equivalent to from 25-100 ug as judged by protein determination and selected radiolabelled ligand. In particular, for AMPA-binding assays, incubation mixtures consisted of 25-100 ug tissue protein and D,L-alpha-[5-methyl-3H]amino-3-hydroxy-5-methylisoxazole-4-propionic acid (3H-AMPA, 27.6 Ci/mmole, 10 nM final) with 0.1 M KSCN and 2.5 mM CaCl2 in the 1 ml final volume. Non-specific […] binding was determined in the presence of 1 mM L-glutamate. […] Pellets were washed twice in 6 ml of the cold incubation buffer, then 5 ml of Beckman Ready-Protein Plus scintillation cocktail was added, for counting.
# [2] = tested on: human GluR3B receptor; assay: binding assays with membrane preparations of engineered mammalian cells
# Description: This feature, coupled with the medically significant connection between AMPA-type receptors and neurological disorders and disease indicate that the present receptors, as well as AMPA-binding fragments and variants thereof, will serve as valuable tools in the screening and discovery of ligands useful to modulate in vivo interactions between such receptors and their natural ligand, glutamate. Thus, a key aspect of the present invention resides in the construction of cells that are engineered genetically to produce human GluR3 receptor, to serve as a ready and homogeneous source of receptor for use in in vitro ligand binding and/or channel activation assays.
# [3] = tested on: human GluR3 receptor; assay: ligand binding assay (NMDA), membranes of transfected COS cells; details: COS cell membranes
# [4] = tested on: human GluR3A receptor; assay: kainate-binding assay, membranes of transfected COS-1 cells; details: COS cell membranes; [vinylidene-3H] kainic acid 5 nM
# Description: as §1, §2
# For kainate-binding assays, incubation mixtures consisted of 25-100 ug tissue protein and [vinylidene-3H] kainic acid (58 Ci/mmole, 5 nM final) in the cold incubation buffer, 1 ml final volume. Non-specific binding was determined in the presence of 1 mM L-glutamate. Samples were incubated as for the AMPA-binding assays, and bound and free ligand were separated by rapid filtration using a Brandel cell harvester and GF/B filters pre-soaked in ice-cold 0.3% polyethyleneimine. Filters were washed twice in 6 ml of the cold incubation buffer, then placed in scintillation vials with 5 ml of Beckman Ready-Protein Plus scintillation cocktail for counting.
smiles,measurement,setting,value
"Cc1onc(O)c1CC(N)C(=O)O (stereo not drawn) [AMPA, alpha-amino-3-hydroxy-5-methyl-isoxazole-4propionate]",specific binding,"[1]; 10 nM [3H]-AMPA, COS cell membranes, non-specific binding with 1 mM L-glutamate, FIG. 7",25-30 fmole/mg protein
same,selective binding relative to kainate and NMDA,"[1]; human GluR3A, membrane preparations",bind selectively
same,selective binding relative to kainate and NMDA,[2],bind selectively
"CN[C@H](CC(=O)O)C(=O)O [NMDA, N-methyl-D-aspartate]",binding of NMDA,[3],little or no demonstrable binding
"C=C(C)[C@H]1CN[C@H](C(=O)O)[C@H]1CC(=O)O [kainate, kainic acid]",binding of kainate,[4],little or no demonstrable binding

# Reference: US6413739B1, “AMPA-binding human GLuR3 receptors” (priority 1992, dated 2002)
